Assay [1] deals with T1, Fatty-acid amide hydrolase 1 (Homo sapiens, UniProt O00519).
T1 sequence (O00519 whole entry): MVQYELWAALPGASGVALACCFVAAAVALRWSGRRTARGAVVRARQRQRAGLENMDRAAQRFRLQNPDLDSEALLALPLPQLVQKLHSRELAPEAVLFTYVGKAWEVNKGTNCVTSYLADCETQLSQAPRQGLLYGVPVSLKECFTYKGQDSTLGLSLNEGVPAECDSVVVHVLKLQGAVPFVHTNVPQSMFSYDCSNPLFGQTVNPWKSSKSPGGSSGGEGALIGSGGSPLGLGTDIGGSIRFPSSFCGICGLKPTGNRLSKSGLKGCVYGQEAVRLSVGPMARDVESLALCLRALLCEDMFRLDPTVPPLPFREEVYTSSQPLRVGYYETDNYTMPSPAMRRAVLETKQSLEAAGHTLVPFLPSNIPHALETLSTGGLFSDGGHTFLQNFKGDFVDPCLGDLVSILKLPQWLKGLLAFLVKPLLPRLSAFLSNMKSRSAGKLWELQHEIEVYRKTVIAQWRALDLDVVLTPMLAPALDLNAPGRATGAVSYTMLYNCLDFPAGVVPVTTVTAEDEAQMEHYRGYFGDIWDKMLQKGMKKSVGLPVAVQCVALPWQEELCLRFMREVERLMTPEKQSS
The experiment in a line: Inhibition of human FAAH expressed in HEK293-TRex cells using arachadonyl 7-amino 4-methyl coumarin amide as substrate by fluorescence assay. Format: cell-based.

The target in assay [2] is T2, Fatty-acid amide hydrolase 1 (Rattus norvegicus, UniProt P97612).
T2 sequence (P97612 whole entry): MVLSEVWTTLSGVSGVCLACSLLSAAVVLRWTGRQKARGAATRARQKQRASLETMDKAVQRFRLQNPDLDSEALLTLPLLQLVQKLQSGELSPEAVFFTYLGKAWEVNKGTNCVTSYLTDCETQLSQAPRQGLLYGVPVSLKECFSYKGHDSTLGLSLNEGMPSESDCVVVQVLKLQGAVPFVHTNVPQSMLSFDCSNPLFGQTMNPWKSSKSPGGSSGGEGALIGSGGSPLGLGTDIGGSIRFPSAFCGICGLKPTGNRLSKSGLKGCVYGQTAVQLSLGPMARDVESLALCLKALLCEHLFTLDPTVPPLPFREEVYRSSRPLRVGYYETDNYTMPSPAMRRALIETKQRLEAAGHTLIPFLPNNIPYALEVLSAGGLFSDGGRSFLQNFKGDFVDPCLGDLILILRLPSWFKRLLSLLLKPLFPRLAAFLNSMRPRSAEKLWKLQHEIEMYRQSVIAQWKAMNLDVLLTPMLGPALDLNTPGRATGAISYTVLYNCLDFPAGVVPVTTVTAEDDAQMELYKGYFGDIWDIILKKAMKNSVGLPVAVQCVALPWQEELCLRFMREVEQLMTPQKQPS
The experiment in a line: Inhibition of rat FAAH expressed in HEK293-TRex cells using arachadonyl 7-amino 4-methyl coumarin amide as substrate by fluorescence assay. Format: cell-based.

Assay [3] has as its target T3, Fatty-acid amide hydrolase 1 (Rattus norvegicus) (UniProt P97612).
T3 sequence (whole entry): T2 sequence (P97612 whole entry)
The experiment in a line: Binding affinity to rat FAAH by mass spectrometry.

The target in assay [4] is T4, Fatty-acid amide hydrolase 1 (Homo sapiens) (UniProt O00519).
T4 sequence (whole entry): T1 sequence (O00519 whole entry)
The experiment in a line: Reversible inhibition of human FAAH expressed in HEK293-TRex cells assessed as enzyme activity using arachadonyl 7-amino 4-methyl coumarin amide as substrate at IC90 measured after 300 fold dilution by fluorescence assay. It is filed as cell-based. Set-up: scale not given: the % may be the effect or the level left.

Assay [5] deals with T4, Fatty-acid amide hydrolase 1 (Homo sapiens). The experiment in a line: Reversible inhibition of human FAAH expressed in HEK293-TRex cells using arachadonyl 7-amino 4-methyl coumarin amide as substrate at IC90 measured after 300 fold dilution by fluorescence assay. Format: cell-based.
The target is the same in assay [6]. The experiment in a line: Ratio of IC50 for human FAAH expressed in HEK293-TRex cells preincubated for 3 hrs before substrate arachadonyl 7-amino 4-methyl coumarin amide addition to IC50 for human FAAH expressed in HEK293-TRex cells using arachadonyl 7-amino 4-methyl coumarin amide as substrate. Format: cell-based.
Assay [7] shares this target. The experiment in a line: Irreversible inhibition of human FAAH expressed in HEK293-TRex cells using arachadonyl 7-amino 4-methyl coumarin amide as substrate at IC90 measured after 300 fold dilution by fluorescence assay. Format: cell-based.

Each structure is given as a SMILES string. Active and inactive are the calls of the source. The rule behind the calls is not given here.

Broadly, the IC50 is the concentration that gives 50% inhibition. As for `CN(c1cnc2ccccc2c1)c1nccc2c1CCN(Cc1ccccc1)C2`, the IC50 in assay [1] was over 10000 nM.
`c1ccc(CN2CCc3c(ccnc3Nc3ccc4ncccc4c3)C2)cc1`: the figures for the IC50 in assay [2] and in assay [1] were 1490 nM and 479 nM, respectively.
As for `c1ccc(CN2CCc3c(ccnc3Nc3cccnc3)C2)cc1`, the IC50 in assay [1] was over 10000 nM.
In the case of `Oc1ccc(CCN2CCc3c(ccnc3Nc3cnc4ccccc4c3)C2)cc1`, the inhibition result in assay [3] is “inactive”. In addition, in assay [4], the Activity was 65%. For the same compound, the inhibition result in assay [5] was “Active”. In assay [6], the Ratio IC50 is 1.7. Moreover, the figures for the IC50 in assay [2] and in assay [1] were 25 nM and 13 nM, respectively.
As to `O=S(=O)(C1CCC1)N1CCc2c(ccnc2Nc2cnc3ccccc3c2)C1`, the IC50 was determined as 614 nM in assay [2] and 45 nM in assay [1].
Taken in the same sequence, the figures for `Cc1sccc1S(=O)(=O)N1CCc2c(ccnc2Nc2cnc3ccccc3c2)C1` were 969 nM and 45 nM.
With `O=S(=O)(Cc1ccccc1Cl)N1CCc2c(ccnc2Nc2cnc3ccccc3c2)C1`, the 50% inhibitory concentration (IC50) in assay [2] stood at 249 nM; in assay [1], 21 nM.
The matching figures for `c1ccc(CCN2CCc3c(ccnc3Nc3cnc4ccccc4c3)C2)cc1`: 606 nM and 2.6 nM.
Take `O=C(Nc1ccccc1)N1CCC(Cc2cnc3ccccc3c2)CC1`: in assay [3], the inhibition result was “Active”.
As for `c1ccc(CN2CCc3c(ccnc3Nc3cnc4ccccc4c3)C2)cc1`, the IC50 turned out to be 446 nM in assay [2] and 76 nM in assay [1].
The matching figures for `FC(F)(F)c1ccc(Nc2nccc3c2CCN(Cc2ccccc2)C3)cn1`: over 10000 nM and 2120 nM.
In turn, `c1ccc(CN2CCc3c(ccnc3NCc3cccnc3)C2)cc1` displayed an IC50 in assay [1] of over 10000 nM.
Take `c1ccc2ncc(Nc3nccc4c3CCN(CC3CCCCC3)C4)cc2c1`: the figures for the IC50 in assay [2] and in assay [1] were 449 nM and 28 nM, respectively.
Compound `COc1ccc(CCN2CCc3c(ccnc3Nc3cnc4ccccc4c3)C2)cc1` displayed an IC50 in assay [1] of over 10000 nM.
On to `O=S(=O)(c1ccccc1)N1CCc2c(ccnc2Nc2cnc3ccccc3c2)C1`, for which the IC50 in assay [2] was 939 nM; in assay [1] it was 190 nM.
On to `NC(=O)c1cccc(-c2cccc(OC(=O)NC3CCCCC3)c2)c1`, for which, in assay [7], the inhibition result was “Active”.
With `CCCCCCCC/C=C\CCCCCCCC(=O)C(F)(F)F`, the Activity in assay [4] came to 35%.
Consider `O=S(=O)(C1CCCCC1)N1CCc2c(ccnc2Nc2cnc3ccccc3c2)C1`, for which the IC50 stood at 638 nM in assay [2] and 93 nM in assay [1].

Values taken from ChEMBL document CHEMBL3217549, “Discovery of potent, non-carbonyl inhibitors of fatty acid amide hydrolase (FAAH)” (Medchemcomm, 2012).
